ChEMBL document CHEMBL5126504, “A gulose moiety contributes to the belomycin (BLM) disaccharide selective targeting to lung cancer cells” (Eur J Med Chem, 2021)
pIC50: −log10 of the molar value.

Columns and labels:
[1] = Selectivity index, ratio of IC50 for cytotoxicity against human BEAS-2B cells to IC50 for cytotoxicity against human A549 cells; format: toxicity, cell-based; conditions: BEAS-2B cells and A549 cells, read-out: Ratio IC50
[2] = test system: A549; test: Cytotoxicity against human A549 cells assessed as reduction in cell viability after 48 hrs by MTT assay; format: functional, cell-based; conditions: A549, 48 h
[3] = Cytotoxicity against human BEAS-2B cells assessed as reduction in cell viability after 48 hrs by MTT assay; format: toxicity, cell-based
[4] = Drug uptake in human A549 cells overexpressing GLUT1 assessed as increase in fluorescence intensity at 25 uM measured after 1 hr by DAPI staining based confocal fluorescence microscopic analysis; format: ADME, cell-based; conditions: a549, 1 h
[5] = Drug uptake in human A549 cells overexpressing GLUT1 assessed as increase in fluorescence intensity at 25 uM measured after 1 hr at 37 degreeC by DAPI staining based confocal fluorescence microscopic analysis; format: ADME, cell-based; conditions: a549, 1 h

Drug uptake [4] | Drug uptake [5] | Structure (SMILES) | selectivity ratio [1] | pIC50 [2] | IC50 at 48 h [3]
– | – | NC(=O)O[C@@H]1[C@H](O)[C@@H](O[C@H]2C(OCCCCCC(=O)Nc3ccn(C4OC(CO)C(O)C4(F)F)c(=O)n3)O[C@H](CO)[C@H](O)[C@H]2O)O[C@H](CO)[C@H]1O (stereo partly drawn) | 20 | 6.89 | 2600 nM
– | – | CC(=O)OC[C@H]1OC(OCCCCCC(=O)Nc2ccn(C3OC(CO)C(O)C3(F)F)c(=O)n2)[C@@H](O)[C@@H](OC(N)=O)[C@@H]1O (stereo partly drawn) | – | 6.04 | 7770 nM
Active | – | CC[N+]1=C(/C=C/C=C/C=C2/N(CCCCCC(=O)NCCOCCOC3O[C@@H](CO)[C@@H](O)[C@H](O)[C@@H]3O[C@H]3O[C@H](CO)[C@@H](O)[C@H](OC(N)=O)[C@@H]3O)c3ccc(S(=O)(=O)O)cc3C2(C)C)C(C)(C)c2cc(S(=O)(=O)[O-])ccc21 (stereo partly drawn) | – | – | –
– | – | CC(=O)OC[C@H]1OC(OCCCCCC(=O)Nc2ccn(C3OC(CO)C(O)C3(F)F)c(=O)n2)[C@H](O)[C@H](O)[C@H]1O (stereo partly drawn) | 20.9 | 6.59 | 5430 nM
– | – | CC(=O)OC[C@H]1OC(OCCCCCC(=O)Nc2ccn(C3OC(CO)C(O)C3(F)F)c(=O)n2)[C@@H](O)[C@@H](O)[C@@H]1O (stereo partly drawn) | – | 6.34 | 7780 nM
Active | Active | CC[N+]1=C(/C=C/C=C/C=C2/N(CCCCCC(=O)NCCOCCOC3O[C@@H](CO)[C@H](O)[C@@H](O)[C@@H]3O[C@H]3O[C@H](CO)[C@@H](O)[C@H](OC(N)=O)[C@@H]3O)c3ccc(S(=O)(=O)O)cc3C2(C)C)C(C)(C)c2cc(S(=O)(=O)[O-])ccc21 (stereo partly drawn) | – | – | –
Active | Active | CC[N+]1=C(/C=C/C=C/C=C2/N(CCCCCC(=O)NCCOCCOC3O[C@H](CO)[C@H](O)[C@@H](O)[C@H]3O)c3ccc(S(=O)(=O)O)cc3C2(C)C)C(C)(C)c2cc(S(=O)(=O)[O-])ccc21 (stereo partly drawn) | – | – | –
– | – | Nc1ccn([C@@H]2O[C@H](CO)[C@@H](O)C2(F)F)c(=O)n1 [GEMCITABINE] | 0.88 | 7.36 | 37 nM
